{
  "source": "patent US20110166191A1",
  "about": "“3-(2-amino-ethyl)-5-(3-cyclohexyl-propylidene)-thiazolidine-2,4-dione and its derivatives as multiple signaling pathway inhibitors and for the treatment of cancer” (priority 2010, published 2011)",
  "key": {"HT29": {"system": "HT29", "assay": "Cell viability assay", "assay_type": "cell-based", "settings": "Homo sapiens, HT-29, HT29 cells, 24 hrs, read-out: Inhibition of cancer cell proliferation IC50", "experimental": "(§1) Cells were cultured at a density of 5×10^4 (U937) or 1×10^4 (PC-3, DU145, M12, HT29) cells per well in flat bottomed 96-well plates and treated with various concentrations of test compound at 37° C. (5% CO2). After 24 h, 20 μL of CellTiter 96® Aqueous One Solution Reagent (Promega, Madison, Wis.) was added to each well according to the manufacturer's instructions. After 1 hour, the cell viability was determined by measuring the absorbance at 490 nm using a micro-plate reader."}, "M12": {"system": "M12", "assay": "Cell viability assay", "assay_type": "cell-based", "settings": "M12 cells, 24 hrs, read-out: Inhibition of cancer cell proliferation IC50", "experimental": "as §1"}, "PC-3": {"system": "PC-3", "assay": "Cell viability assay", "assay_type": "cell-based", "settings": "Homo sapiens, PC-3 cells, 24 hrs, read-out: Inhibition of cancer cell proliferation IC50", "experimental": "as §1"}, "DU145": {"system": "DU145", "assay": "Cell viability assay", "assay_type": "cell-based", "settings": "Homo sapiens, DU-145, DU145 cells, 24 hrs, read-out: Inhibition of cancer cell proliferation IC50", "experimental": "as §1"}, "U937": {"system": "U937", "assay": "Cell viability assay", "assay_type": "cell-based", "settings": "Homo sapiens, U-937, U937 cells, 24 hrs, read-out: Inhibition of cancer cell proliferation IC50", "experimental": "as §1"}, "SRC": {"biological_target": "T1, SRC (Homo sapiens, UniProt P12931)", "T1 construct": "purchased Caliper Life Sciences", "T1 sequence (P12931 whole entry, species assumed)": "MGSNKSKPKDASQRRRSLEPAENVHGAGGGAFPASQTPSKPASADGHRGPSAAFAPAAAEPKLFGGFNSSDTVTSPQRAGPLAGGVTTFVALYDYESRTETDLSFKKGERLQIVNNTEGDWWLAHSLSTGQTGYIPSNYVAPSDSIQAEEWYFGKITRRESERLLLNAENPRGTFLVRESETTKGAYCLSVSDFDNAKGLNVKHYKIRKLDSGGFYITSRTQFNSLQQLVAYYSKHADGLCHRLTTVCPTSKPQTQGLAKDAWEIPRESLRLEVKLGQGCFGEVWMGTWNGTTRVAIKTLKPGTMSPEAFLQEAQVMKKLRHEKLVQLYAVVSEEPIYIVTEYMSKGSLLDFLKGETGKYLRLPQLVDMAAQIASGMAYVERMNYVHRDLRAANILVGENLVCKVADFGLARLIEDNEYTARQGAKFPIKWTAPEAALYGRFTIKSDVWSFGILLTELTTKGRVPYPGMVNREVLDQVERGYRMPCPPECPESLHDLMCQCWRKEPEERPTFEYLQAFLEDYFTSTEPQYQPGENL", "assay": "In vitro kinase screening", "assay_type": "biochemical", "settings": "10 μM concentration", "experimental": "(§2) Formula II [3-(2-aminoethyl)-5-(3-cyclohexylpropylidene)thiazolidine-2,4-dione] was screened against a panel of kinases at 10 μM concentration by Caliper Life Sciences according to their established protocol."}, "PKCb2": {"biological_target": "T2, PKCb2 (Homo sapiens, UniProt P05771)", "T2 construct": "Caliper Life Sciences", "assay": "In vitro kinase screening", "assay_type": "biochemical", "settings": "PKCb2, 10 μM concentration", "experimental": "as §2"}, "MEK2": {"biological_target": "T3, MEK2 (Homo sapiens, UniProt P36507)", "T3 construct": "Caliper Life Sciences", "T3 sequence (P36507 whole entry, species assumed)": "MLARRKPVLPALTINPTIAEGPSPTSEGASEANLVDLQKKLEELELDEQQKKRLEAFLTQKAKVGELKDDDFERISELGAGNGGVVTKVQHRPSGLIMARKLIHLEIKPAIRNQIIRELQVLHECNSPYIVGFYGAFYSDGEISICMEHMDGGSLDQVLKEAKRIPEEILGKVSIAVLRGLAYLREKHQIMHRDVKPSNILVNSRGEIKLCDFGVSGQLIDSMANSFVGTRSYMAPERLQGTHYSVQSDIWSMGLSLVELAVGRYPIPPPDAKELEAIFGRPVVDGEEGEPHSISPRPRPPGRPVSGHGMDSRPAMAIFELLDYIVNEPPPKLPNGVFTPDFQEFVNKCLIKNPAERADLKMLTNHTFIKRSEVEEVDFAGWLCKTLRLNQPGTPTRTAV", "assay": "In vitro kinase screening", "assay_type": "biochemical", "settings": "MEK2, 10 μM concentration", "experimental": "as §2"}, "CAMK2": {"system": "CAMK2", "assay": "In vitro kinase screening", "assay_type": "biochemical", "settings": "CAMK2, 10 μM concentration", "experimental": "as §2"}, "MSK1": {"biological_target": "T4, MSK1 (Homo sapiens, UniProt O75582)", "T4 construct": "Caliper Life Sciences", "assay": "In vitro kinase screening", "assay_type": "biochemical", "settings": "MSK1, 10 μM concentration", "experimental": "as §2"}, "c-TAK1": {"biological_target": "T5, c-TAK1 (Homo sapiens, UniProt P27448)", "T5 construct": "Caliper Life Sciences (screening service)", "assay": "In vitro kinase screening", "assay_type": "biochemical", "settings": "c-TAK1, 10 μM concentration", "experimental": "as §2"}, "CDK2": {"biological_target": "T6, CDK2 (Homo sapiens, UniProt P24941)", "T6 construct": "Caliper Life Sciences (screening service)", "assay": "In vitro kinase screening", "assay_type": "biochemical", "settings": "CDK2, 10 μM concentration", "experimental": "as §2"}, "ABL": {"biological_target": "T7, ABL (Homo sapiens, UniProt P00519)", "T7 construct": "Caliper Life Sciences (screening service)", "assay": "In vitro kinase screening", "assay_type": "biochemical", "settings": "10 μM concentration", "experimental": "as §2"}, "c-Raf": {"biological_target": "T8, c-Raf (Homo sapiens, UniProt P04049)", "T8 construct": "Caliper Life Sciences (screening service)", "T8 sequence (P04049 whole entry)": "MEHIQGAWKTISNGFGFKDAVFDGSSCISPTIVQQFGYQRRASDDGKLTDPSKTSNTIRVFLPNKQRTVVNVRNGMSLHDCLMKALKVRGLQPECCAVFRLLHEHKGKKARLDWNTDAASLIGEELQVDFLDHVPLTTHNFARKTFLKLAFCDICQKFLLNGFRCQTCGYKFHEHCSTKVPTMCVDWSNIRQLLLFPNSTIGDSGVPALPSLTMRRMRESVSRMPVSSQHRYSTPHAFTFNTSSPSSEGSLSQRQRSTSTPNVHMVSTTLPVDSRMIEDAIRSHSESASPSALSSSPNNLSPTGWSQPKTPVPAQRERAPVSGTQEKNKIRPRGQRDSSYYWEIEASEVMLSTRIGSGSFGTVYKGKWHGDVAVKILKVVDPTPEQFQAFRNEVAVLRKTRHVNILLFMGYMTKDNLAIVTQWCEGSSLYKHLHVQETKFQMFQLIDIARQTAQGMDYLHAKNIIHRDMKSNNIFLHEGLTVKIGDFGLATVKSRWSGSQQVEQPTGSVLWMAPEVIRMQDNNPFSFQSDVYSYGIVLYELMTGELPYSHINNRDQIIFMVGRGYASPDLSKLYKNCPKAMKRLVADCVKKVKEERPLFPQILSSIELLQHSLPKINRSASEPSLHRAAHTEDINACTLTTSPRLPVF", "assay": "In vitro kinase screening", "assay_type": "biochemical", "settings": "10 μM concentration", "experimental": "as §2"}, "CAMk4": {"biological_target": "T9, CAMk4 (Homo sapiens, UniProt Q16566)", "T9 construct": "Caliper Life Sciences (screening service)", "assay": "In vitro kinase screening", "assay_type": "biochemical", "settings": "CAMk4, 10 μM concentration", "experimental": "as §2"}, "CHK2": {"biological_target": "T10, CHK2 (Homo sapiens, UniProt O96017)", "T10 construct": "Caliper Life Sciences (screening service)", "T10 sequence (O96017 whole entry)": "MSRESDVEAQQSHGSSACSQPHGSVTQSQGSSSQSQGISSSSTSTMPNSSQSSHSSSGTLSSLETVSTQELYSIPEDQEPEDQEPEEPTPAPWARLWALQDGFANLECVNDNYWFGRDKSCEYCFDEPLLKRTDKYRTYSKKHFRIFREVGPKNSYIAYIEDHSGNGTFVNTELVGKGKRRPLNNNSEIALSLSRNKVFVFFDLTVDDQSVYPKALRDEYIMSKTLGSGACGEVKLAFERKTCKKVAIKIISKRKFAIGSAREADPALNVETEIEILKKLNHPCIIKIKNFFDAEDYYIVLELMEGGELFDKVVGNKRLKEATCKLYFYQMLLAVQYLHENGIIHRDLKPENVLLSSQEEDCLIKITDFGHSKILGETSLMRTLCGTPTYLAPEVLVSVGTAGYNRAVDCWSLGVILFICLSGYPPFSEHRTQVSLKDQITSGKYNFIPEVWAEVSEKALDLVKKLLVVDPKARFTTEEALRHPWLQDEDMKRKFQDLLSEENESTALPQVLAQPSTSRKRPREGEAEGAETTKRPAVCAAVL", "assay": "In vitro kinase screening", "assay_type": "biochemical", "settings": "CHK2, 10 μM concentration", "experimental": "as §2"}, "PKA": {"biological_target": "T11, PKA (Homo sapiens, UniProt P17612)", "T11 construct": "Caliper Life Sciences", "assay": "In vitro kinase screening", "assay_type": "biochemical", "settings": "10 μM concentration", "experimental": "as §2"}, "FLT3": {"biological_target": "T12, FLT3 (Homo sapiens, UniProt P36888)", "T12 construct": "Caliper Life Sciences (screening service)", "T12 sequence (P36888 27-993)": "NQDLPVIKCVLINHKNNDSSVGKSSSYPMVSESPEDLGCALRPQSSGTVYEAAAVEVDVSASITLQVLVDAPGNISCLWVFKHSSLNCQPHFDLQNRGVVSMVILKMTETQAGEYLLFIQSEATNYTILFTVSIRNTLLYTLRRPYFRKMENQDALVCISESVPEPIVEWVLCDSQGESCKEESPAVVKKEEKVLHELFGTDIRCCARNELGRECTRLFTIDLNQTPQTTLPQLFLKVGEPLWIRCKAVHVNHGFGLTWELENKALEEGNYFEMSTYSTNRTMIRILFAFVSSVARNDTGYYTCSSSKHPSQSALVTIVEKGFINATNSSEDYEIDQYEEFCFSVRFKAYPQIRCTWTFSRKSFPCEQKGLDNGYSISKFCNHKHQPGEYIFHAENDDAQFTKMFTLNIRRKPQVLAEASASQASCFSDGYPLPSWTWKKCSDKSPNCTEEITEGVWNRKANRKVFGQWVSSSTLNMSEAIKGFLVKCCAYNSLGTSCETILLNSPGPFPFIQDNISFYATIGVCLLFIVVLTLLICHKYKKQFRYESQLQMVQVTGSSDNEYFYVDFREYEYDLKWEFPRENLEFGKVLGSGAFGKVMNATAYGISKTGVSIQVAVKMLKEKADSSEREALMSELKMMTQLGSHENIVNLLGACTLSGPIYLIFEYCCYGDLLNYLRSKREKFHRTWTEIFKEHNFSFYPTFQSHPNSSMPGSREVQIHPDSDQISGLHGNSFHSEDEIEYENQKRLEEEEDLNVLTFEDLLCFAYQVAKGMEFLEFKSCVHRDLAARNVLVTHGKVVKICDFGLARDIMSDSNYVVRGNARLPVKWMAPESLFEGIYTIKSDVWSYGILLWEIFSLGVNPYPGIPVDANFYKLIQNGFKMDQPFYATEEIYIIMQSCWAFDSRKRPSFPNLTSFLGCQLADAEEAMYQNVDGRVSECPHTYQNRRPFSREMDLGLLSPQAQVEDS", "assay": "In vitro kinase screening", "assay_type": "biochemical", "settings": "FLT3, 10 μM concentration", "experimental": "as §2"}, "PI3Ka": {"biological_target": "T13, PI3Ka (Homo sapiens, UniProt P42336)", "T13 construct": "Caliper Life Sciences", "T13 sequence (P42336 whole entry)": "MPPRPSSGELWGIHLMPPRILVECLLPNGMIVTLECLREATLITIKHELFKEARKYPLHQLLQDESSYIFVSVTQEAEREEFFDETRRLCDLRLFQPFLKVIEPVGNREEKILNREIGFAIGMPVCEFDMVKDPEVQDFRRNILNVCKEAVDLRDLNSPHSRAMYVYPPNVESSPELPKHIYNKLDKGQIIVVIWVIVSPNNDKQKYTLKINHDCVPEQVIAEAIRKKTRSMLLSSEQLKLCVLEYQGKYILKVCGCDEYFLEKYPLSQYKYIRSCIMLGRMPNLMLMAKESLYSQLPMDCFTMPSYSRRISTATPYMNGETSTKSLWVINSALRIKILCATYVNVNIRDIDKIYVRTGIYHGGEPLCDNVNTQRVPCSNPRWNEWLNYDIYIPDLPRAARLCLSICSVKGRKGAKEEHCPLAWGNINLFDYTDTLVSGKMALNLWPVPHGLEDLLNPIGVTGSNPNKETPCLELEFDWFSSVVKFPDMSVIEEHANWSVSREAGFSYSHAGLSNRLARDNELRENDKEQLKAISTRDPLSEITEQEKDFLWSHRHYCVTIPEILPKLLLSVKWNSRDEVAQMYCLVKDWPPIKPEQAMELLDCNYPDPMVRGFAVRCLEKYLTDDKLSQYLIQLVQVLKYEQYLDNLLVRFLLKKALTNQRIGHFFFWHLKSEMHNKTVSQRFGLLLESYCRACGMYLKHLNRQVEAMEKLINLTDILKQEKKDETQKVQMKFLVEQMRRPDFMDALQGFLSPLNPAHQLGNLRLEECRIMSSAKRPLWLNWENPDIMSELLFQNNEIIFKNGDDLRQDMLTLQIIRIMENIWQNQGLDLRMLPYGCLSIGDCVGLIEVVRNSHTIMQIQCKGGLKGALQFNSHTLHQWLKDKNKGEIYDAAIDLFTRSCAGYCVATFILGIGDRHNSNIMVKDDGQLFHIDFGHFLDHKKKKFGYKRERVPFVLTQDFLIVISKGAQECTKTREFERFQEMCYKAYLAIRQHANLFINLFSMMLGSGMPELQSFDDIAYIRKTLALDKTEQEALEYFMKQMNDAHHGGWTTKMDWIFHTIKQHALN", "T13 sequence (P27986 whole entry partner)": "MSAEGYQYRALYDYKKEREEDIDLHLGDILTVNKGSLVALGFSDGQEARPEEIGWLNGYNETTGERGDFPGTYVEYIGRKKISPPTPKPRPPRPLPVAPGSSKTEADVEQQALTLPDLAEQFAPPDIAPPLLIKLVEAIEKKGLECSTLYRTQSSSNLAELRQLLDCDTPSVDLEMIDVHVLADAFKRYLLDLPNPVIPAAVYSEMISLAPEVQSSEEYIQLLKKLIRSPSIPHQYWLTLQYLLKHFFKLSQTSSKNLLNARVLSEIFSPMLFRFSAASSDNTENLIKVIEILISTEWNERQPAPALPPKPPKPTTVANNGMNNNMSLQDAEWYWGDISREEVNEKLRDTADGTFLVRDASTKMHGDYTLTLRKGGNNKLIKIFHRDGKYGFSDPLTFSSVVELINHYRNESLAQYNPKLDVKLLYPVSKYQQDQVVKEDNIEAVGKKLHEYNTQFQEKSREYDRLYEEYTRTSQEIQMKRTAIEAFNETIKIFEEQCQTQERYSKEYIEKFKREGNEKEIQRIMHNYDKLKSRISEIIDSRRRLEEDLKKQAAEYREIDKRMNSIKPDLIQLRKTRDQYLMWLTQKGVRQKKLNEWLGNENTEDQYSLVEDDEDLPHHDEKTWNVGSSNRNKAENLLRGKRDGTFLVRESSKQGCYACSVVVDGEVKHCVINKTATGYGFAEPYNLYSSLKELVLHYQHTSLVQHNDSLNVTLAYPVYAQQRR", "assay": "In vitro kinase screening", "assay_type": "biochemical", "settings": "10 μM concentration", "experimental": "as §2"}, "IGF1R": {"biological_target": "T14, IGF1R (Homo sapiens, UniProt P08069)", "T14 construct": "Caliper Life Sciences (screening service)", "assay": "In vitro kinase screening", "assay_type": "biochemical", "settings": "10 μM concentration", "experimental": "as §2"}, "p-MEK": {"system": "p-MEK", "assay": "Western blot analysis of p-MEK in U937 cells", "assay_type": "cell-based", "settings": "PMA/TPA 200 nM stimulation", "experimental": "FIG. 1. U937 cells were treated with Formula II prepared as described in Example 4 [i.e. 3-(2-aminoethyl)-5-(3-cyclohexylpropylidene)thiazolidine-2,4-dione] for 1 h, then stimulated with PMA (200 nM) for 30 min. Lysates were analyzed for p-Akt, p-MEK, p-ERK and α-tubulin by western blot analysis.\nCells (5×10^5 per ml) were treated with various concentrations of test compound at 37° C. (5% CO2) for 3 hrs, then stimulated with TPA at a final concentration of 200 nM for 20 min. Samples from whole-cell pellets were prepared and 30 μg protein for each condition was subjected to SDS-PAGE, transferred onto a PVDF membrane, and blocked with 5% fat-free milk for 30 min. The membrane is probed with primary antibodies overnight at 4° C. followed by incubation with horseradish peroxidase-labeled anti-mouse IgG (1:5000, BD Biosciecne). The immunoreactive bands are detected by chemiluminescence methods (Pierce) and visualized on Kodak Omat film. The following primary antibodies were used: phospho-p44/42 MAPK (ERK1/2, Thr202/Tyr204), p44/42 MAPK, phospho-p90RSK (Thr359/Ser363), RSK1/RSK2/RSK3 (Cell Signaling). Blots were reprobed with antibodies against α-tubulin to ensure equal loading and transfer of proteins."}},
  "data": [
    {"compound": "NCCN1C(=O)S/C(=C\\CCC2CCCCC2)C1=O", "note": "[Example 4, 3-(2-aminoethyl)-5-(3-cyclohexylpropylidene)thiazolidine-2,4-dione]", "values": [
      {"measurement": "IC50", "setting": "HT29", "value": 17.9, "unit": "µM"},
      {"measurement": "IC50", "setting": "M12", "value": 4.51, "unit": "µM"},
      {"measurement": "IC50", "setting": "PC-3", "value": 4.46, "unit": "µM"},
      {"measurement": "IC50", "setting": "DU145", "value": 4.8, "unit": "µM"},
      {"measurement": "IC50", "setting": "U937", "value": 2.21, "unit": "µM"},
      {"measurement": "inhibition at 10 µM", "setting": "SRC", "value": 2, "unit": "%"},
      {"measurement": "inhibition at 10 µM", "setting": "PKCb2", "value": 16, "unit": "%"},
      {"measurement": "inhibition at 10 µM", "setting": "MEK2", "value": 27, "unit": "%"},
      {"measurement": "% Inhibition", "setting": "CAMK2", "value": 60, "unit": "%"},
      {"measurement": "inhibition at 10 µM", "setting": "MSK1", "value": 6, "unit": "%"},
      {"measurement": "inhibition at 10 µM", "setting": "c-TAK1", "value": 6, "unit": "%"},
      {"measurement": "inhibition at 10 µM", "setting": "CDK2", "value": -2, "unit": "%"},
      {"measurement": "inhibition at 10 µM", "setting": "ABL", "value": 6, "unit": "%"},
      {"measurement": "inhibition at 10 µM", "setting": "c-Raf", "value": -1, "unit": "%"},
      {"measurement": "inhibition at 10 µM", "setting": "CAMk4", "value": 71, "unit": "%"},
      {"measurement": "inhibition at 10 µM", "setting": "CHK2", "value": 8, "unit": "%"},
      {"measurement": "inhibition at 10 µM", "setting": "PKA", "value": -3, "unit": "%"},
      {"measurement": "inhibition at 10 µM", "setting": "FLT3", "value": 38, "unit": "%"},
      {"measurement": "inhibition at 10 µM", "setting": "PI3Ka", "value": 45, "unit": "%"},
      {"measurement": "inhibition at 10 µM", "setting": "IGF1R", "value": -1, "unit": "%"},
      {"measurement": "p-MEK level (western blot)", "setting": "p-MEK", "value": "dose-dependently decreased the p-MEK level"}
    ]}
  ]
}
